Test results: US5434186A, “Carboxylic acid leukotriene B4 antagonists” (Hoffmann-La Roche Inc., priority 1993, dated 1995)

Legend:
LTB4 Receptor = target: T1, LTB4 Receptor (Homo sapiens, UniProt Q15722); experiment: LTB4 Receptor Binding Assay (inhibition of 3H-LTB4 binding, human neutrophils); conditions: 0.5 nM 3H-LTB4, 45 minutes on ice, isolated human neutrophils
T1 construct: Isolated human neutrophils in Gey's salt solution; endogenous in cells; host or cells: human neutrophils isolated from blood (90-95% neutrophils)
Experimental: Binding assays can be performed in microtiter wells. Isolated human neutrophils in Gey's salt solution are incubated on ice for 45 minutes with 0.5 nM ^3 H-LTB4 in the presence or absence of test compounds. Assays are terminated by adding 12 ml ice cold 50 mM Tris (pH 7.4) followed by rapid filtration under vacuum through GF/C filters. Radioactivity is determined by scintillation counting. Non specific binding is defined as the binding not displaced by 100 fold excess of unlabelled LTB4. Specific binding is defined as the difference between total binding and non-specific binding. Non linear analysis of the binding data is performed using LIGAND (Munson and Rodbard, 1980). Ki (Inhibition Constant) values were determined using the Cheng-Prusoff relationship (Cheng and Prusoff, 1973).
Human neutrophils are prepared from citrated or heparinized blood. The blood was diluted 1:1 with Hank's balanced salt solution (HBSS) minus calcium and magnesium and underlayed with 10 ml lymphocyte separation medium (Organon Teknika), followed by centrifugation at 500× g for 30 min., at room temperature. Supernatants are removed down to the red blood cell pellet. HBSS minus calcium and magnesium are added to give 25 ml. To this are added 25 ml 6% dextran in 0.85% NaCl. Samples are mixed and allowed to stand 20 min at room temperature. Supernatants are removed and centrifuged at 500× g for 5 min at 4° C. Pellets are resuspended with 20 ml 0.2% saline for 20 sec followed by the addition of 20 ml 1.6% saline. Samples are centrifuged at 500× g for 5 min at 4° C. The lysis is repeated and the cells (90-95% neutrophils) are resuspended at 2× 10^6 cell/ml in GEY's salt solution.

[1] = tested on: LTB4 -induced bronchoconstriction; experiment: Guinea Pig Bronchoconstriction In Vivo (LTB4-induced); parameters: species or system guinea pig (Hartley strain); conditions: Cavia porcellus, iv, i.v. five minutes prior to LTB4 (1 μg/kg i.v.), read-out: ID50 (mg/kg), i.v., LTB4-induced bronchoconstriction
Experimental: Male guinea pigs (Hartley strain) weighing 300 to 500 g are anesthetized with urethane (2 g/kg) intraperitoneally and a polyethylene cannula is inserted into the jugular vein for drug administration. Tracheal pressure is recorded from a cannula inserted into the trachea and connected to a Gould P23ID pressure transducer. After surgical preparation of the animals, a period of time is allowed for pulmonary functions to stabilize. The test compound is administered intravenously five minutes prior to leukotriene B4 administration according to the following protocol: Animals are paralyzed with succinylcholine (1.2 mg/kg i.v.) and mechanically respirated (Harvard rodent respirator) at 40 breaths/minute and 2.5 cc tidal volume. Propranolol (0.1 mg/kg) is then administered intravenously one minute prior to leukotriene B4 administration. Animals are then challenged with an intermediate constrictory dose of leukotriene B4 (1 μg/kg) delivered intravenously.
The change (cm H2 O) between pre and peak ventilatory pressure readings is averaged for five control and five drug treated animals. The percent inhibition is calculated from the formula:
((Control-Drug Treated)/Control)×100
When representative compounds of formula I of the invention were utilized as the test compounds the following results were obtained: […]

T1 sequence (Q15722 whole entry): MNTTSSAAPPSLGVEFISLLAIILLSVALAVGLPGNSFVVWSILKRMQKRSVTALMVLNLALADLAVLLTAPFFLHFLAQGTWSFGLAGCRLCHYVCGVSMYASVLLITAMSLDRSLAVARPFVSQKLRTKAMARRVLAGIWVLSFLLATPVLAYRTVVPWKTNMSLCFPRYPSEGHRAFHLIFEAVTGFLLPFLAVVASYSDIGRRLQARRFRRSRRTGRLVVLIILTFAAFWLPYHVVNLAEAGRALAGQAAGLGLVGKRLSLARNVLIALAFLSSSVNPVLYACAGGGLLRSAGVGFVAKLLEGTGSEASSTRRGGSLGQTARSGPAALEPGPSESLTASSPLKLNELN

| Structure (SMILES) | Ki (LTB4 Receptor) [nM] | ED50 [1] [mg/kg] |
| --- | --- | --- |
| CCCc1c(OCCCCCOc2ccccc2CCC(=O)O)ccc2c1OCC2=O [Example 40, 2-[5-[(2,3-Dihydro-3-oxo-7-propylbenzofuran-6-yl)oxy]pentyloxy]benzenepropanoic Acid] | 75 | – |
| CCCc1c(OCCCCCOc2ccc(CCC(=O)O)cc2CCC(=O)O)ccc2c1OCCC2=O [Example 163, 4-[5-[(3,4-Dihydro-4-oxo-8-propyl-2H-1-benzopyran-7-yl)oxy]pentyloxy]-1,3-benzenedipropanoic Acid] | 3 | 3.11 |
| CCCc1c(OCCCCCOc2ccc(C(=O)c3ccc(C(=O)O)cc3)cc2CCC(=O)O)ccc2c1OCCC2=O [Example 85, 5-[(4-Carboxyphenyl)carbonyl]-2-[5-[(3,4-dihydro-4-oxo-8-propyl-2H-1-benzopyran-7-yl)oxy]pentyloxy]benzenepropanoic Acid] | 3 | 6.23 |
| CCCc1c(OCCCCCOc2ccc(C(=O)Cc3ccccc3C(=O)O)cc2CCC(=O)O)ccc2c1OCCC2=O [Example 92, 5-[2-(2-Carboxyphenyl)-1-oxoethyl]-2-[5-[(3,4-dihydro-4-oxo-8-propyl-2H-1-benzopyran-7-yl)oxy]pentyloxy]benzenepropanoic Acid] | 5 | – |
| CCCc1c(OCCCCCCCCOc2ccc(C(=O)c3cccc(C(=O)O)c3)cc2CCC(=O)O)ccc2c1OCCC2=O [Example 83, 5-[(3-Carboxyphenyl)carbonyl]-2-[8-[(3,4-dihydro-4-oxo-8-propyl-2H-1-benzopyran-7-yl)oxy]octyloxy]benzenepropanoic Acid] | 3 | – |
| CCCc1c(OCCCCCc2ccccc2CCC(=O)O)ccc2c1OCCC2=O [Example 8, 2-[5-[(3,4-Dihydro-4-oxo-8-propyl-2H-1-benzopyran-7-yl)oxy]pentyl]benzenepropanoic Acid] | 63 | – |
| CCCc1c(C#CCCCCOc2ccccc2CCC(=O)O)ccc2c1OCCC2=O [Example 107, 2-[6-(3,4-Dihydro-4-oxo-8-propyl-2H-1-benzopyran-7-yl)-5-hexynyloxy]benzenepropanoic Acid] | 50 | – |
| CCCc1c(OCCCCCOc2ccccc2/C=C/C(=O)O)ccc2c1OCCC2=O [Example 109, (E)-3-[2-[5-[(3,4-Dihydro-4-oxo-8-propyl-2H-1-benzopyran-7-yl)oxy]pentyloxy]phenyl]-2-propenoic Acid] | 80 | – |
| CCCc1c(OCCCCCOc2ccc3cc(OCC(=O)O)ccc3c2CCC(=O)O)ccc2c1OCCC2=O [Example 231, 6-(Carboxymethoxy)-2-[[5-[(3,4-dihydro-4-oxo-8-propyl-2H-1-benzopyran-7-yl)oxy]pentyl]oxy]-1-naphthalenepropanoic Acid] | 0.8 | 1.36 |
| CCCc1c(OCCCCCCc2ccc(OCCCC(=O)O)cc2/C=C/C(=O)O)ccc2c1OCCC2=O [Example 114, (E)-4-[3-(2-carboxyethenyl)-4-[6-[(3,4-dihydro-4-oxo-8-propyl-2H-1-benzopyran-7-yl)oxy]hexyl]phenoxy]butanoic acid] | 1 | – |
| CCCc1c(CCCCCCOc2ccccc2CCC(=O)O)ccc2c1OCCC2=O [Example 106, 2-[6-(3,4-Dihydro-4-oxo-8-propyl-2H-1-benzopyran-7-yl)hexyloxy]benzenepropanoic Acid] | 20 | – |
| CCCc1c(OCCCCCOc2ccc(C(=O)c3ccccc3CC(=O)O)cc2CCC(=O)O)ccc2c1OCCC2=O [Example 95, 5-[[2-(Carboxymethyl)phenyl]carbonyl]-2-[5-[(3,4-dihydro-4-oxo-8-propyl-2H-1-benzopyran-7-yl)oxy]pentyloxy]benzenepropanoic Acid] | 8 | – |
| CCCc1c(OCCCC/C=C/c2ccc(C(=O)c3cccc(C(=O)O)c3)cc2CCC(=O)O)ccc2c1OCCC2=O [Example 101, (E)-5-[(3-Carboxyphenyl)carbonyl]-2-[6-[(3,4-dihydro-4-oxo-8-propyl-2H-1-benzopyran-7-yl)oxy]-1-hexenyl]benzenepropanoic Acid] | 4 | – |
| CCCc1c(OCCCCCCc2cccc(OCCCCC(=O)N(C)C)c2CCC(=O)N(C)C)ccc2c1OCCC2=O [Example 196, 2-[6-[(3,4-Dihydro-4-oxo-8-propyl-2H-1-benzopyran-7-yl)oxy]hexyl]-6-[[5-(dimethylamino)-5-oxopentyl]oxy]-N,N-dimethylbenzenepropanamide] | 200 | 0.62 |
| CCCc1c(OCCCCCCc2cccc(OCCCCCC(=O)O)c2CCC(=O)O)ccc2c1CCCC2=O [Example 206, 2-[(5-Carboxypentyl)oxy]-6-[6-[(5,6,7,8-tetrahydro-5-oxo-1-propyl-2-naphthalenyl)oxy]hexyl]benzenepropanoic Acid] | – | 0.12 |
| CCCc1c(OCCCCCCc2cccc(OCCCCCCCCC(=O)O)c2CCC(=O)O)ccc2c1OCCC2=O [Example 188, 2-[(8-Carboxyoctyl)oxy]-6-[6-[(3,4-dihydro-4-oxo-8-propyl-2H-1-benzopyran-7-yl)oxy]hexyl]benzenepropanoic Acid] | – | 0.9 |
| CCCc1c(OCCCCCOc2ccc(C(C)=O)cc2CCC(=O)O)ccc2c1OCCC2=O [Example 33, 5-Acetyl-2-[5-[(3,4-dihydro-4-oxo-8-propyl-2H-1-benzopyran-7-yl)oxy]pentyloxy]benzenepropanoic Acid] | 10 | 1.8 |
| CCCc1c(OCCCCCOc2ccccc2CCCCC(=O)O)ccc2c1OCCC2=O [Example 147, 2-[5-[(3,4-Dihydro-4-oxo-8-propyl-2H-1-benzopyran-7-yl)oxy]pentyloxy]benzenepentanoic Acid] | 200 | 1.18 |
| CCCc1c(OCCCCCOc2ccc(C(=O)CCC(=O)O)cc2CCC(=O)O)ccc2c1OCCC2=O [Example 89, 3-(2-Carboxyethyl)-4-[5-[(3,4-dihydro-4-oxo-8-propyl-2H-1-benzopyran-7-yl)oxy]pentyloxy]-γ-oxobenzenebutanoic Acid] | 4 | 4.33 |
| CCCc1c(OCCCCCCc2cccc(OCCCCCCCC(=O)O)c2CCC(=O)O)ccc2c1OCCC2=O [Example 184, 2-[(7-Carboxyheptyl)oxy]-6-[6-[(3,4-dihydro-4-oxo-8-propyl-2H-1-benzopyran-7-yl)oxy]hexyl]benzenepropanoic Acid] | – | 0.17 |
| CCCc1c(OCCCCCOc2ccc(OCCCCC(=O)O)cc2CCC(=O)O)ccc2c1OCCC2=O [Example 58, 5-(4-Carboxybutoxy)-2-[5-[(3,4-dihydro-4-oxo-8-propyl-2H-1-benzopyran-7-yl)oxy]pentyloxy]benzenepropanoic Acid Hemihydrate] | 4 | 5.09 |
| CCCc1c(OCCCCCOc2ccc3oc(C(=O)O)cc3c2)ccc2c1OCCC2=O [Example 26, 5-[5-[(3,4-Dihydro-4-oxo-8-propyl-2H-1-benzopyran-7-yl)oxy]pentyloxy]-2-benzofurancarboxylic Acid] | 270 | – |
| CCCc1ccc2c(c1OCCCCCOc1ccccc1CCC(=O)O)CCCC2=O [Example 79, 2-[5-[(5-Oxo-2-propyl-5,6,7,8-tetrahydro-1-naphthalenyl)oxy]pentyloxy]benzenepropanoic Acid] | 1500 | – |
| CCCc1c(OCCCCCOc2ccccc2CCC(=O)O)ccc2c1CCCC2=O [Example 10, 2-[[5-(5-Oxo-1-propyl-5,6,7,8-tetrahydro-2-naphthalenyl)oxy]pentyloxy]benzenepropanoic Acid] | – | 2.08 |
| CCCc1c(OCCCCCOc2cccc3cc(C(=O)O)oc23)ccc2c1OCCC2=O [Example 19, 7-[5-[(3,4-Dihydro-4-oxo-8-propyl-2H-1-benzopyran-7-yl)oxy]pentyloxy]-2-benzofurancarboxylic Acid] | 250 | – |
| CCCc1c(OCCCCCCCOc2ccc(C(=O)c3cccc(C(=O)O)c3)cc2CCC(=O)O)ccc2c1OCCC2=O [Example 81, 5-[(3-Carboxyphenyl)carbonyl]-2-[7-[(3,4-dihydro-4-oxo-8-propyl-2H-1-benzopyran-7-yl)oxy]heptyloxy]benzenepropanoic Acid] | 3 | – |
| CCCc1c(OCCCCCCc2cccc(OCCCC(=O)O)c2CCC(=O)O)ccc2c1OCCC2=O [Example 205, 2-(3-Carboxypropoxy)-6-[6-[(3,4-dihydro-4-oxo-8-propyl-2H-1-benzopyran-7-yl)oxy]hexyl]benzenepropanoic Acid] | – | 0.26 |
